# Test results published in ChEMBL document CHEMBL4665860, “Focused structure-activity relationship profiling around the 2-phenylindole scaffold of a cannabinoid type-1 receptor agonist-positive allosteric modulator: site-III aromatic-ring congeners with enhanced activity and solubility” (Bioorg Med Chem, 2020).
# How the values were obtained:
# Cannabinoid receptor 1 [1] = target: T1, Cannabinoid receptor 1 (Homo sapiens, UniProt P21554); assay: Positive allosteric modulatory activity at human CB1 receptor expressed in CHO-K1 cells assessed as increase in CP55940-induced beta-arrestin recruitment preincubated 90 mins followed by CP55940 addition and measured after 60 mins by PathHunter assay relative to CP55940; format: cell-based
# T1 sequence (P21554 whole entry): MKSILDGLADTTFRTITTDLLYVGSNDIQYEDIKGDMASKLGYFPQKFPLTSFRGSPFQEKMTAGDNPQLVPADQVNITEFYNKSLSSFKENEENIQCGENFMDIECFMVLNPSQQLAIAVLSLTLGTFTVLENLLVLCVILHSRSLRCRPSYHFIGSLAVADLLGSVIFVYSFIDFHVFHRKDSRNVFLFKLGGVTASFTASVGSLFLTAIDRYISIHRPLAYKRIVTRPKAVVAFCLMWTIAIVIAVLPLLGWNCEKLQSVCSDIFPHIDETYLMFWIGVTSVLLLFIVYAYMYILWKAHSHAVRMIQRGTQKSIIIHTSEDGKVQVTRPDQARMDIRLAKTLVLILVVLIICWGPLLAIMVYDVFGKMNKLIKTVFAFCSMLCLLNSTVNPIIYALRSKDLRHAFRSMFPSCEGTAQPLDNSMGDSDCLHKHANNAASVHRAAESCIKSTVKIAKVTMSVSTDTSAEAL
# Cannabinoid receptor 1 [2] = target: T1, Cannabinoid receptor 1; assay: Positive allosteric modulatory activity at human CB1 receptor expressed in CHO-K1 cells assessed as increase in CP55940-induced inhibition of forskolin-stimulated cAMP production preincubated for 30 mins […] by Hit-hunter assay; format: functional, cell-based
# Cannabinoid receptor 1 [3] = target: T1, Cannabinoid receptor 1; assay: Positive allosteric modulatory activity at human CB1 receptor expressed in CHO-K1 cells assessed as increase in CP55940-induced beta-arrestin recruitment […] and measured after 60 mins by PathHunter assay; format: cell-based
# Cannabinoid receptor 1 [4] = target: T1, Cannabinoid receptor 1; assay: Positive allosteric modulatory activity at human CB1 receptor expressed in CHO-K1 cells assessed as increase in CP55940-induced inhibition of forskolin-stimulated cAMP production preincubated for 30 mins followed by CP55940 addition and measured after 60 mins by Hit-hunter assay relative to control; format: functional, cell-based
# physchem = settings: PBS, pH 7.4
# [5] = filed as positive allosteric modulator
Compound,Emax (Cannabinoid receptor 1 [1]),EC50 (Cannabinoid receptor 1 [2]),EC50 (Cannabinoid receptor 1 [3]),Emax (Cannabinoid receptor 1 [4]; [5]),Emax (Cannabinoid receptor 1 [1]; [5]),Emax (Cannabinoid receptor 1 [4]),solubility kinetic at 2 h (physchem)
O=[N+]([O-])CC(c1nccs1)c1c(-c2ccccc2)[nH]c2ccccc12 (stereo not drawn),32.6%,192 nM,331 nM,83.7%,–,–,–
O=[N+]([O-])CC(c1ccc(N2CCCCC2)cc1)c1c(-c2ccccc2)[nH]c2ccccc12 (stereo not drawn),–,476 nM,2460 nM,125%,42.1%,–,–
O=[N+]([O-])CC(c1cccc(C(F)(F)F)c1)c1c(-c2ccccc2)[nH]c2ccccc12 (stereo not drawn),0%,127 nM,> 10000 nM,151%,–,–,–
Cc1cccc(C(C[N+](=O)[O-])c2c(-c3ccccc3)[nH]c3ccccc23)c1 (stereo not drawn),23.8%,662 nM,1990 nM,116%,–,–,–
O=[N+]([O-])CC(Cc1ccccc1)c1c(-c2ccccc2)[nH]c2ccccc12 (stereo not drawn),0%,420 nM,> 10000 nM,115%,–,–,–
Cn1cncc1C(C[N+](=O)[O-])c1c(-c2ccccc2)[nH]c2ccccc12 (stereo not drawn),0%,> 10000 nM,> 10000 nM,46.1%,–,–,–
O=[N+]([O-])CC(c1ccc[nH]1)c1c(-c2ccccc2)[nH]c2ccccc12 (stereo not drawn),0.7%,209 nM,> 10000 nM,77.1%,–,–,–
Cn1cnc(C(C[N+](=O)[O-])c2c(-c3ccccc3)[nH]c3ccccc23)c1 (stereo not drawn),0.667%,> 10000 nM,> 10000 nM,–,–,34.4%,–
O=[N+]([O-])CC(c1ccccc1Cl)c1c(-c2ccccc2)[nH]c2ccccc12 (stereo not drawn),–,18 nM,1240 nM,75%,93.4%,–,–
O=[N+]([O-])CC(c1ccoc1)c1c(-c2ccccc2)[nH]c2ccccc12 (stereo not drawn),12.9%,513 nM,> 10000 nM,144%,–,–,–
O=[N+]([O-])CC(c1ccccc1F)c1c(-c2ccccc2)[nH]c2ccccc12 (stereo not drawn),–,–,782 nM,–,56%,–,–
O=[N+]([O-])CC(c1ccc(F)cc1)c1c(-c2ccccc2)[nH]c2ccccc12 (stereo not drawn),–,–,> 10000 nM,–,–,–,–
COc1ccccc1C(C[N+](=O)[O-])c1c(-c2ccccc2)[nH]c2ccccc12 (stereo not drawn),37%,411 nM,1870 nM,118%,–,–,–
O=[N+]([O-])CC(c1cccc(F)c1)c1c(-c2ccccc2)[nH]c2ccccc12 (stereo not drawn),15.7%,–,> 10000 nM,118%,–,–,–
O=[N+]([O-])CC(c1ncco1)c1c(-c2ccccc2)[nH]c2ccccc12 (stereo not drawn),3.21%,856 nM,> 10000 nM,56.6%,–,–,–
O=[N+]([O-])CC(c1cccc2ccccc12)c1c(-c2ccccc2)[nH]c2ccccc12 (stereo not drawn),0%,> 10000 nM,> 10000 nM,62.2%,–,–,–
O=[N+]([O-])CC(c1ccc(-c2ccccc2)cc1)c1c(-c2ccccc2)[nH]c2ccccc12 (stereo not drawn),5%,> 10000 nM,> 10000 nM,–,–,25.5%,–
O=[N+]([O-])CC(c1ccccc1N1CCCC1)c1c(-c2ccccc2)[nH]c2ccccc12 (stereo not drawn),7.28%,1820 nM,> 10000 nM,75.9%,–,–,–
COc1ccc(C(C[N+](=O)[O-])c2c(-c3ccccc3)[nH]c3ccccc23)cc1 (stereo not drawn),0%,1180 nM,> 10000 nM,119%,–,–,–
O=[N+]([O-])CC(c1ccsc1)c1c(-c2ccccc2)[nH]c2ccccc12 (stereo not drawn),23.9%,119 nM,1610 nM,125%,–,–,–
O=[N+]([O-])CC(c1cccs1)c1c(-c2ccccc2)[nH]c2ccccc12 (stereo not drawn),36.1%,31 nM,584 nM,116%,–,–,–

Compound,Emax (Cannabinoid receptor 1 [1]),EC50 (Cannabinoid receptor 1 [2]),EC50 (Cannabinoid receptor 1 [3]),Emax (Cannabinoid receptor 1 [4]; [5]),Emax (Cannabinoid receptor 1 [1]; [5]),Emax (Cannabinoid receptor 1 [4]),solubility kinetic at 2 h (physchem)
O=[N+]([O-])CC(c1ccccc1C(F)(F)F)c1c(-c2ccccc2)[nH]c2ccccc12 (stereo not drawn),–,557 nM,792 nM,86.2%,68.1%,–,–
O=[N+]([O-])CC(c1c(-c2ccccc2)[nH]c2ccccc12)C1CCCCC1 (stereo not drawn),26.8%,495 nM,1900 nM,117%,–,–,–
Cc1ccc2c(C(C[N+](=O)[O-])c3nccs3)c(-c3ccccc3)[nH]c2c1 (stereo not drawn),–,50 nM,163 nM,98.5%,80.6%,–,3.13 µM
O=[N+]([O-])CC(c1ccc(C(F)(F)F)cc1)c1c(-c2ccccc2)[nH]c2ccccc12 (stereo not drawn),0%,> 10000 nM,> 10000 nM,65.1%,–,–,–
O=[N+]([O-])CC(c1ccc(N2CCCC2)cc1)c1c(-c2ccccc2)[nH]c2ccccc12 (stereo not drawn),0%,618 nM,> 10000 nM,97.4%,–,–,–
Cc1ccc2c(C(C[N+](=O)[O-])c3cccs3)c(-c3ccccc3)[nH]c2c1 (stereo not drawn),–,33 nM,379 nM,–,78.2%,–,1.56 µM
O=[N+]([O-])CC(c1ccccc1)c1c(-c2ccccc2)[nH]c2ccccc12 (stereo not drawn),–,–,–,99.6%,54.1%,–,–
O=[N+]([O-])CC(c1ccco1)c1c(-c2ccccc2)[nH]c2ccccc12 (stereo not drawn),28.8%,245 nM,655 nM,99.8%,–,–,–
O=[N+]([O-])CC(c1ccc2ccccc2c1)c1c(-c2ccccc2)[nH]c2ccccc12 (stereo not drawn),31.8%,483 nM,2340 nM,113%,–,–,–
Cc1ccc(C(C[N+](=O)[O-])c2c(-c3ccccc3)[nH]c3ccccc23)cc1 (stereo not drawn),0%,1440 nM,> 10000 nM,119%,–,–,–
O=[N+]([O-])CC(c1ccc(N2CCOCC2)cc1)c1c(-c2ccccc2)[nH]c2ccccc12 (stereo not drawn),0%,> 10000 nM,> 10000 nM,87.6%,–,–,–
Cc1ccc2c(C(C[N+](=O)[O-])c3ncco3)c(-c3ccccc3)[nH]c2c1 (stereo not drawn),14.5%,261 nM,> 10000 nM,67.2%,–,–,12.5 µM
COc1cccc(C(C[N+](=O)[O-])c2c(-c3ccccc3)[nH]c3ccccc23)c1 (stereo not drawn),4.96%,664 nM,> 10000 nM,131%,–,–,–
Cn1ccnc1C(C[N+](=O)[O-])c1c(-c2ccccc2)[nH]c2ccccc12 (stereo not drawn),0%,533 nM,> 10000 nM,52.7%,–,–,–
O=[N+]([O-])CC(c1cccc(N2CCCC2)c1)c1c(-c2ccccc2)[nH]c2ccccc12 (stereo not drawn),6.69%,423 nM,> 10000 nM,110%,–,–,–
O=[N+]([O-])CC(c1ccc(Cl)cc1)c1c(-c2ccccc2)[nH]c2ccccc12 (stereo not drawn),0%,1320 nM,> 10000 nM,74.8%,–,–,–
O=[N+]([O-])CC(c1cccc(Cl)c1)c1c(-c2ccccc2)[nH]c2ccccc12 (stereo not drawn),16%,859 nM,2980 nM,121%,–,–,–
O=[N+]([O-])CC(c1c(Cl)cccc1Cl)c1c(-c2ccccc2)[nH]c2ccccc12 (stereo not drawn),3.72%,571 nM,> 10000 nM,128%,–,–,–
Cc1ccccc1C(C[N+](=O)[O-])c1c(-c2ccccc2)[nH]c2ccccc12 (stereo not drawn),–,3 nM,57 nM,81.7%,68.5%,–,–
CC(C)(C)c1ccc(C(C[N+](=O)[O-])c2c(-c3ccccc3)[nH]c3ccccc23)cc1 (stereo not drawn),5.57%,203 nM,> 10000 nM,109%,–,–,–
